# From patent EP0234500A1, “Antiasthma inhalation compositions” (RORER PHARMACEUTICAL CORPORATION, priority 1986, dated 1987)
# Where “and” joins values, the source holds several entries; their conditions need not be identical. Identical values can stand only once. Counter-ions that a name gives are not always drawn.
# Assays:
# [1] = Solubility of the active compound in ethanol/propellant mixture; format: physicochemical
# From the text: Other aspects of the present invention include solubility of the active compound in the pharmaceutically acceptable solvent, ethyl alcohol, the maintainance in solution of the active compound upon the addition of the propellant(s) and the particle size distribution of the aerosol preparation. The compounds of the present invention are soluble in ethyl alcohol.
# [2] = Particle size distribution and MMAD of aerosol formulations; format: physicochemical; design: MMAD**: unit: micrometers (µm); details: for MMAD**: Mass Median Aerodynamic Diameter; for Part. Size (mg collected) per 20 actuations 4 µ*: Particle Size Limit = 4 µ to 8 µ; for mg at 1-8 µ: per 20 actuations
# From the text: Other essential properties of aerosol formulations are the particle size distribution and the related mass median aerodynamic diameter of the particles. It is generally required that the effective range for inahalation products be approximately in the range of 1 to 8 micrometers (um). The particle size distribution helps, inter alia, to reduce loss on impaction on the tongue and oropharynx of the particles expelled from the pressurized container.
# Male Hartley guinea pigs = assay: Antigen-induced bronchoconstriction in ovalbumin-immunized anesthetized guinea pigs, aerosol administration; format: in vivo; details: 1% aerosol formulation, 25 actuations, approximately 5 mg (or 15 mg/kg), 15 minutes before ovalbumin 0.3 mg/kg i.v. challenge, n=7
# Experimental: Male Hartley guinea pigs (200-250 g) were immunized with ovalbumin, 2.7 mg/kg i.p., followed in 30 minutes by Salmonella typhosa lipopolysaccharide, 20 ug i.p. Thirteen to fifteen days after immunization, each guinea pig was anesthetized with sodium pentobarbital, 50 mg/kg i.p., and a jugular vein and the trachea were cannulated. The animal was mechanically ventilated (80 breaths/min. 2ml/breath). Needle electrodes were attached to the limbs for monitoring ECG and heart rate. Airway pressure was measured with a Validyne pressure transducer (+ 20 cm H20 range) connected to the tracheal cannula. Airway pressure for each breath was recorded on a polygraph, while mean values over 6-second periods were printed on a digital terminal. […] All bronchoconstrictor responses to the second dose of LTD4 and to antigen were quantified as the percent increase in airway pressure over the baseline value. The normalized response of each animal is expressed as the ratio of antigen-induced to LTD4-induced bronchoconstriction. Mean values and standard errors of these ratios in control and drug-treated groups were calculated and compared statistically by Student's t-test. The activity of each drug is expressed as the percent inhibition of the mean control response.
# [3] = Compound of Example 1 1.0, ETOH 5.0, P 114 47, P 12 47, hydrochloride
# [4] = Compound of Example 1 1.0, ETOH 10.0, P 114 25.0, P 12 75.0
# [5] = Compound of Example 1 1.0, ETOH 10.0, P 114 35, P 12 53
# [6] = Compound of Example 1 1.0, ETOH 10.0, P 114 44.5, P 12 44.5
# [7] = Compound of Example 1 1.0, ETOH 10.0, P 114 44.5, P 12 44.5, hydrochloride
# [8] = Compound of Example 1 2.0, ETOH 10.0, P 114 44.00, P 12 44.00
# [9] = Compound of Example 1 2.5, ETOH 10.0, P 114 43.75, P 12 43.75, hydrochloride
# [10] = Compound of Example 1 3.0, ETOH 10.0, P 114 43.5, P 12 43.5
# [11] = Compound of Example 1 3.5, ETOH 10.0, P 114 43.25, P 12 43.25
# [12] = Compound of Example 1 5.0, ETOH 30.0, P 114 32.5, P 12 32.5
# [13] = Compound of Example 1 6.0, ETOH 20.0, P 114 29.6, P 12 44.4
# [14] = Compound of Example 1 9.0, ETOH 30.0, P 114 17, P 12 44
smiles,measurement,setting,value
"CCCCCC(O)c1cccc(OCc2ccc3ccccc3n2)c1 (stereo not drawn) [Compound of Example 1, 2-(3-(l-Hydroxyhexyl)phenoxymethyl)quinoline hydrochloride]",Solubility at 24°C,"[1]; Ethanol (W/W) 5%, Propellants 114/12 (50/50 Mixture) 93.2%",1.8%
same,Solubility at 24°C,"[1]; Ethanol (W/W) 10%, Propellants 114/12 (50/50 Mixture) 86.0%",4.0%
same,Solubility at 24°C,"[1]; Ethanol (W/W) 20%, Propellants 114/12 (50/50 Mixture) 74.0%",6.0%
same,Solubility at 24°C,"[1]; Ethanol (W/W) 30%, Propellants 114/12 (50/50 Mixture) 61.0%",9.0%
same,Part. Size (mg collected) per 20 actuations 1 µ,[2]; [3],0.448 mg and 0.607 mg and 0.667 mg
same,Part. Size (mg collected) per 20 actuations 2 µ,[2]; [3],0.973 mg and 1.529 mg and 1.532 mg
same,Pressure PSI,[2]; [3],58.7 PSI and 60.2 PSI
same,cum % 1-8 µ,[2]; [3],57.74% and 60.73% and 66.20%
same,Part. Size (mg collected) per 20 actuations 1 µ,[2]; [4],0.499 mg
same,Part. Size (mg collected) per 20 actuations 2 µ,[2]; [4],1.167 mg
same,cum % 1-8 µ,[2]; [4],45.36%
same,Part. Size (mg collected) per 20 actuations 1 µ,[2]; [5],0.503 mg
same,Part. Size (mg collected) per 20 actuations 2 µ,[2]; [5],1.201 mg
same,Pressure PSI,[2]; [5],56 PSI
same,cum % 1-8 µ,[2]; [5],55.41%
same,Pressure PSI,[2]; [6],49.3 PSI
same,Part. Size (mg collected) per 20 actuations 1 µ,[2]; [7],0.498 mg and 0.479 mg
same,Part. Size (mg collected) per 20 actuations 2 µ,[2]; [7],1.243 mg and 0.868 mg
same,cum % 1-8 µ,[2]; [7],53.70% and 57.26%
same,Part. Size (mg collected) per 20 actuations 1 µ,[2]; [8],0.661 mg
same,Part. Size (mg collected) per 20 actuations 2 µ,[2]; [8],1.373 mg
same,cum % 1-8 µ,[2]; [8],46.71%
same,Part. Size (mg collected) per 20 actuations 1 µ,[2]; [9],0.514 mg and 0.528 mg and 0.638 mg
same,Part. Size (mg collected) per 20 actuations 2 µ,[2]; [9],1.380 mg and 1.435 mg and 1.106 mg
same,cum % 1-8 µ,[2]; [9],44.86% and 44.36% and 42.87%
same,Part. Size (mg collected) per 20 actuations 1 µ,[2]; [10],0.538 mg
same,Part. Size (mg collected) per 20 actuations 2 µ,[2]; [10],1.478 mg
same,cum % 1-8 µ,[2]; [10],40.15%
same,Part. Size (mg collected) per 20 actuations 1 µ,[2]; [11],0.583 mg
same,Part. Size (mg collected) per 20 actuations 2 µ,[2]; [11],1.236 mg
same,cum % 1-8 µ,[2]; [11],35.00%
same,Part. Size (mg collected) per 20 actuations 1 µ,[2]; [12],0.336 mg
same,Part. Size (mg collected) per 20 actuations 2 µ,[2]; [12],0.852 mg
same,Pressure PSI,[2]; [12],52 PSI
same,cum % 1-8 µ,[2]; [12],32.09%
same,Part. Size (mg collected) per 20 actuations 1 µ,[2]; [13],0.447 mg
same,Part. Size (mg collected) per 20 actuations 2 µ,[2]; [13],0.901 mg
same,Pressure PSI,[2]; [13],52.0 PSI
same,cum % 1-8 µ,[2]; [13],28.77%
same,Part. Size (mg collected) per 20 actuations 1 µ,[2]; [14],0.394 mg
same,Part. Size (mg collected) per 20 actuations 2 µ,[2]; [14],0.818 mg
same,Pressure PSI,[2]; [14],53.7 PSI
same,cum % 1-8 µ,[2]; [14],28.79%
same,MMAD**,[2]; [3],3.0 and 2.8
same,MMAD**,[2]; [4],4.0
same,MMAD**,[2]; [5],3.5
same,MMAD**,[2]; [6],3.0
same,MMAD**,[2]; [8],3.8
same,MMAD**,[2]; [9],3.8 and 4.0
same,MMAD**,[2]; [10],4.0
same,MMAD**,[2]; [11],4.5
same,MMAD**,[2]; [12],6.0
same,MMAD**,[2]; [13],5.75
same,MMAD**,[2]; [14],6.0
same,Part. Size (mg collected) per 20 actuations 4 µ*,[2]; [3],2.091 mg and 2.522 mg and 2.481 mg
same,Part. Size (mg collected) per 20 actuations 4 µ*,[2]; [4],1.611 mg
same,Part. Size (mg collected) per 20 actuations 4 µ*,[2]; [5],2.283 mg
same,Part. Size (mg collected) per 20 actuations 4 µ*,[2]; [7],1.871 mg and 1.715 mg
same,Part. Size (mg collected) per 20 actuations 4 µ*,[2]; [8],2.772 mg
same,Part. Size (mg collected) per 20 actuations 4 µ*,[2]; [9],3.121 mg and 3.103 mg and 2.744 mg
same,Part. Size (mg collected) per 20 actuations 4 µ*,[2]; [10],2.657 mg
same,Part. Size (mg collected) per 20 actuations 4 µ*,[2]; [11],3.546 mg
same,Part. Size (mg collected) per 20 actuations 4 µ*,[2]; [12],2.084 mg
same,Part. Size (mg collected) per 20 actuations 4 µ*,[2]; [13],2.879 mg
same,Part. Size (mg collected) per 20 actuations 4 µ*,[2]; [14],2.381 mg
same,mg at 1-8 µ,[2]; [3],3.512 mg and 4.658 mg and 4.680 mg
same,mg at 1-8 µ,[2]; [4],3.277 mg
same,mg at 1-8 µ,[2]; [5],3.987 mg
same,mg at 1-8 µ,[2]; [7],3.612 mg and 3.062 mg
same,mg at 1-8 µ,[2]; [8],4.806 mg
same,mg at 1-8 µ,[2]; [9],5.015 mg and 5.066 mg and 4.488 mg
same,mg at 1-8 µ,[2]; [10],4.673 mg
same,mg at 1-8 µ,[2]; [11],5.365 mg
same,mg at 1-8 µ,[2]; [12],3.272 mg
same,mg at 1-8 µ,[2]; [13],4.227 mg
same,mg at 1-8 µ,[2]; [14],3.593 mg
same,percent inhibition of the mean control response,Male Hartley guinea pigs,53%
same,"normalized postchallenge increase in PAW (ratio of antigen-induced to LTD4-induced bronchoconstriction), mean response",Male Hartley guinea pigs; mean and standard error,0.60 ± 0.16
